Test results taken from patent US6773702B2, “Use of combretastatin A4 and its prodrugs as an immune enhancing therapy” (OXiGENE, Inc., priority 2000, dated 2004).

Tests used:
[1] = system: BN7005-H1D2 colon cancer cells; assay: Tumor growth with IL-18/IFN-γ vaccination plus CA4P and/or L-NAME (FIG. 6); assay type: in vivo, rat; conditions: L-NAME by gavage 48 mg/rat + vaccination with IL-18/IFN-γ producing tumor cells
Procedure: FIG. 6 illustrates enhancement of the therapeutic effect of vaccination with IL-18/IFN-γ producing tumor transfectant […] cells by concurrent treatment with low dose combretastatin-A4 prodrug and/or L-NAME. Mean tumor volume±SEM is indicated. Significance of differences compared to the PBS control was evaluated by the Student's t test.
Four groups of 6 rats each were inoculated intrahepatically with 1×10^5 wild type colon cancer cells (BN7005-H1D2) on day 0. Drug treatment was initiated on day 7, when the tumor was macroscopically visible as a small nodule, and was repeated 5 days a week. CA4-P was administered i.p. at a dose of 5 mg/kg and L-NAME by gavage at a dose of 48 mg/rat. Vaccination was given twice i.p. on day 10.and 17 with 2×10^6 tumor cells producing IL-18 and IFN-γ, respectively. No drug treatment was given on the day of vaccination and the day after. On day 28 all animals were laparotomized and tumor diameters measured (the longest diameter (a) and the one perpendicular to the first (b) and tumor volume calculated according to the formula 0.4×a×b×b.
Referring to FIG. 6, wild-type (BN7005-H1D2) colon cancer cells were inoculated intrahepatically and combretastatin A4 prodrug treatment began daily on day 7 when the tumors were macroscopically visible. L-NAME, a well known NO inhibitor and effective antitumor agent, was also administered daily. On day 10 and 17 vaccination occurred using BN7005-H1D2 cells transfected with IL-18/IFN-gamma. […] One likely explanation was that both L-NAME and Combretastatin A4 were doing the same thing; i.e. inhibiting the production of proinflammatory cytokines that cause immune suppression.

[2] = system: colon carcinoma H1D2-WT cells; assay: Intrahepatic growth of colon carcinoma H1D2-WT, tumor volume after 4 weeks (Table 2); assay type: in vivo, rat; conditions: no CA4-P; L-NAME gavage; with immunization
Procedure: Table 2 is a summary of intrahepatic growth of colon carcinoma H1D2-WT cells treated with low dose CA4P alone or in combination with immunomodulatory gene therapy, and with or without additional inhibitor. Tumor growth was initiated by inoculation beneath the liver capsule with 1×10^5 in vitro cultured BN7005-H1D2 wild type cells suspended in 50 μl RPMI medium. Drug administration (CA4P, L-NAME, Indomethacin) was initiated after 7-8 days when the tumor was macroscopically visible. CA4P was given intraperitoneally, 5 days a week. L-NAME was given by gavage twice a week on the day of immunization and the day after. Indomethacin was given by gavage 48 h after vaccination at a dose of 0.33 mg/kg. Immunization was performed by intraperitoneal administration on day 10 and day 17 using BN7005-H1D2 cells transfected with IL-18 or a mixture of IL-18 and IL-12 transfectants (2-3×10^6 viable cells per rat).
Wild-type (BN7005-H1D2) colon cancer cells (1×10^5 cells) were inoculated intrahepatically and CA4P drug treatment (2 and 5 mg/kg) began daily when the tumors were macroscopically visible. On day 10 and 17, vaccinations were administered intraperitoneally using […] cells transfected with IL-18 transfected cells or mixtures of IL-18 and IL-12 transfected cells (2-3×10^6 viable cells per rat). L-NAME and Indomethacin were also administered by gavage 48 h after vaccination at a dose of 0.33 mg/kg.

[3] = system: spleen cells of H1D2-WT tumor-bearing rat; assay: In vitro proliferative response of spleen cells from a tumor-bearing rat treated with CA4 plus immunotherapy (FIG. 4); assay type: in vivo; conditions: for T cell proliferative response: CA4 2 mg/kg + active immunotherapy
Procedure: FIG. 4 illustrates the enhanced in vitro immune proliferative response (cpm) of spleen cells isolated from (H1D2-WT) a tumor-bearing rat previously treated in vivo with a combination of active immunomodulatory therapy and CA4 (2 mg/kg, 6 days a week). Spleen cells were tested 9 weeks after tumor inoculation when tumor sizes was 0.9 cm^3. LO signifies spleen cells containing adherent macrophages, whereas L1 represents the same population depleted of adherent macrophages. A subset of each cell sample was treated with either medium (Med) or L-NAME (1.5 mg/ml).
While the anti-tumor properties of CA4 and CA4P are very different, the present invention embraces the discovery that a low dose of either compound is capable of enhancing the immune responsiveness of a tumor host. FIG. 4 illustrates the in vitro immune proliferation of spleen cells isolated from a tumor-bearing rat previously subjected to treatment with a combination of CA4 (2 mg/kg) and active immunotherapy. The rat was killed 9 weeks after initiation of intrahepatic tumor growth, at which point the tumor had grown to a size of 0.9 cm^3. Control rats receiving immunotherapy alone were euthanized 5 weeks earlier due to the development of large tumor burdens (>5 cm3).
A tumor-bearing rat (H1D1-WT) was treated in vivo with weekly immunizations of IL-18 transfected tumor cells (H1D1-IL-18), in addition to CA4 treatment (2 mg/kg) 6 days a week. Due to the inherent insolubility of CA4, […] (0.9 cm^3 tumor) following […] of growth, at which point the untreated control rats were all dead with large tumor burdens (>5 cm^3) and would not be expected to show an immune response at such a late stage. Both unseparated spleen cells (L0) and nonadherent spleen cells (L1), depleted of most macrophages by plastic adherence (as in Example 2), were tested for a proliferative response to H1D2-IL18 tumor stimulator cells in the absence or presence of the NO-synthase inhibitor L-NAME.

[4] = system: BN7005-H1D2 colon cancer cells; assay: Comparison of CA4 and CA4P on BN7005-H1D2 tumor growth, alone or with vaccination (FIG. 5); assay type: in vivo, rat
Procedure: FIGS. 5A AND 5B illustrate a comparison of the therapeutic effect of Combretastatin A4 and Combretastatin A4 Prodrug (2 mg/kg) on tumor growth (BN7005-H1D2) in vivo as a sole therapy or in combination with therapeutic vaccination (IL-18 tumor transfectants). Results are represented as mean tumor volume (FIG. 5A) or as median tumor volume (FIG. 5B) 31 days after tumor initiation.
A comparison was also made of relative effect of CA4 and CA4P administration in vivo with regard to tumor inhibitory effects when used as sole therapy and when combined with immunomodulatory gene therapy. […] A subset of these animals were subjected to regular vaccinations autologous IL-18 and IL-12-transfected tumor cells, respectively.
A comparison has been made of the effect of CA4 and CA4 prodrug with regard to tumor inhibitory effects when used as sole therapy and when combined with immunomodulatory gene therapy. As represented in FIG. 5, wild-type (BN7005-H1D2) colon cancer cells were inoculated intrahepatically and treatment with CA4 and CA4P began on day 7 (2 mg/kg 6 days a week), when the tumors were macroscopically visible. On day 9, 16 and 23, vaccinations occurred using BN7005-H1D2 cells transfected with ILI8 and IL-12, respectively.

[5] = cited from earlier work

| Structure (SMILES) | Enhancement of immune stimulated gene therapy [1] | Tumor volume after 4 weeks, Mean [2] [mm^3] | Tumor volume after 4 weeks, Median [2] [mm^3] | Tumor size ([3]; 9 weeks after initiation of intrahepatic tumor growth, CA4 2 mg/kg + active immunotherapy (controls >5 cm3)) [cm^3] | T cell proliferative response ([3]; non-adherent T cells (L1), 9 weeks) | T cell proliferative response ([3]; unseparated spleen cells (L0) in the presence of L-NAME in vitro) | T cell proliferative response ([3]; unseparated spleen cells (L0), 9 weeks after tumor initiation) [cpm] | Tumor inhibitory effect ([4]; 2 mg/kg 6 days a week as sole therapy) | Tumor inhibitory effect ([4]; 2 mg/kg combined with vaccination (IL-18 and IL-12 transfected tumor cells)) | Solubility in water [5] |
| --- | --- | --- | --- | --- | --- | --- | --- | --- | --- | --- |
| COC(=O)[C@@H](N)CCCNC(=N)N[N+](=O)[O-] [L-NAME, reference compound] | effective enhancers of immune stimulated gene therapy | 1285 | 879 |  |  |  |  |  |  |  |
| COc1ccc(/C=C\c2cc(OC)c(OC)c(OC)c2)cc1O [CA4, Combretastatin A4] |  |  |  | 0.9 | 86,000 cpm | 44,000 cpm | 9000 | no significant effect as sole therapy | significant tumor inhibitory effects | very limited |
